Test results taken from PubChem BioAssay AID2060615 (Molecular Pharmacology Branch, DTP, NCI, 2025).

Test system: 496974-208-R-J2-PDC complex spheroids, growth % test/control
Experiment: Anticancer human tumor 496974-208-R-J2-PDC patient-derived pancreatic carcinoma cell line growth inhibition [CLK]
Conditions: for IC50: curve of first compound; for viability, T/C: stronger effect = lower value
Description: A high-throughput screen of multi-cell type tumor spheroids was designed to identify active combinations of […] and targeted small molecules. Complex spheroids include a stromal component modeled by human endothelial cells (HUVEC) and fibroblasts modeled by human mesenchymal stem cells (MSCs). The concentration ranges selected for each drug and investigational agent were based upon clinically achievable concentrations if the clinical Cmax of the agent was known.
Compounds. The drugs and investigational agents: cirtuvivint (SM08502; NSC835563), CC-671 (NSC850746), vemurafenib (NSC761431), tapotoclax (NSC804041), sotorasib (NSC818433), adagrasib (NSC831453), MRTX-1133 (NSC836407), BAY2416964 (NSC825713), copanlisib (NSC816437), inavolisib (NSC800729), abemaciclib (NSC768073), osimertinib (NSC779217), entinostat (NSC756642), eltanexor (KPT-8602, NSC794443), venetoclax (NSC766270), ceralasertib (NSC777638), bortezomib (NSC756655), olaparib (NSC753686), talazoparib (NSC767125), alisertib (NSC759677), peposertib (NSC802822), gemcitabine (NSC613327), 5-fluorouracil (NSC19893), SN-38 (NSC673596), oxaliplatin (NSC266046), paclitaxel (NSC125973), and doxorubicin (NSC123127), were obtained from the National Cancer Institute (NCI) Developmental Therapeutics Program Chemical Repository. The FDA-approved anticancer drug set is available from the Developmental Therapeutics Program at https://dtp.cancer.gov/organization/dscb/obtaining/available plates.htm. […] The stock solutions were prepared in dimethyl sulfoxide (DMSO, Sigma-Aldrich, St. Louis, MO, cat. D2650), except for the platinum complexes which were prepared in saline (Quality Biological, Gaithersburg, MD, cat. 114-055-101), at 800-fold the tested concentration and stored at -70 degrees C prior to their use. All drugs and investigational agents were tested over a range starting from a high concentration at or near the clinical Cmax and decreasing in half-log increments. If the clinical Cmax for an agent had not been determined, the highest concentration tested was 10 microM.
Cell Culture. All cells were maintained in an incubator at 37 degrees C and 5% CO2 with 95% humidity. The PDC lines were cultured according to standard operating procedures established by the NCI PDMR. Briefly, all PDCs were thawed and cultured in Matrigel-coated flasks prepared with a working solution of 1X Ham's F-12 nutrient mix, without supplementation (Invitrogen, Waltham, MA, cat. 11765054), 100 U/mL penicillin-streptomycin (Invitrogen, cat. 15140122), and 2.5% Matrigel (Corning Inc., Corning, NY, cat. 354248) for the first three passages. The 947758-054-R-J2-PDC line was cultured in 6B/Colon 1A media, which includes advanced DMEM/F-12 (Thermo Fisher Scientific, cat. 12634028), 10 mM HEPES (Thermo Fisher Scientific, cat. 15630080), 1X GlutaMAX supplement (Thermo Fisher Scientific, cat. 35050061), 0.1 mg/mL primocin (InvivoGen, cat. ant-pm-2), 10% defined fetal bovine serum, heat inactivated (HyClone Laboratories Inc., cat. SH30070.03HI), 1.25 mM N-Acetyl-L-cysteine (Sigma-Aldrich, cat. A9165), 10 mM nicotinamide (Sigma-Aldrich, cat. N0636), 1X B-27 supplement (Thermo Fisher Scientific, cat. 17504044), 1X N-2 supplement (Thermo Fisher Scientific, cat. 17502048), and 10 microM Y-27632 dihydrochloride (Tocris Bioscience, cat. 1254). The 876862-298-R-J1-PDC was cultured in 6E media, which includes all 6B/Colon 1A media components plus 50% L-WRN conditioned media (ATCC, cat. CRL-3276), 50 ng/mL recombinant human EGF recombinant protein (hEGF; Thermo Fisher Scientific, cat. PHG0311), 10 ng/mL recombinant human fibroblast growth factor 10 (hGFG-10; PeproTech, cat. 100-26), 1 ng/mL recombinant human fibroblast growth factor 2 (hFGF-2; PeproTech, cat. 100-18B), and 1 µM prostaglandin E2 (PGE2; Tocris, cat. 2296). The 227483-062-R1-J1-PDC line was cultured in Panc media, containing all 6E components except hFGF-2, with the addition of 500 nM SB-431542 (Selleckchem, cat. S1067) and 10 nM gastrin (Tocris, cat. 3006). […]
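Note: spheroids exposed to the drugs for 7 days before readout.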
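Throughout, for viability, T/C: 100% = DMSO vehicle control wells.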

Nc1ccccc1NC(=O)c1ccc(CNC(=O)OCc2cccnc2)cc1 + CN1CCN(c2cc(C(=O)Nc3cc4cc(-c5cnn(C)c5)ccc4cn3)ccn2)CC1
IC50 (second compound 0.0316 µM): 4300 nM
IC50 (second compound 0.1 µM): 4370 nM
IC50 (second compound 0.316 µM): < 31.6 nM
IC50 (second compound 1 µM): < 31.6 nM
IC50 (second compound 3.16 µM): < 31.6 nM
IC50 (second compound 10 µM): < 31.6 nM
viability, T/C (second compound 0.0316 µM, first compound 0.0316 µM): 105%
viability, T/C (second compound 0.0316 µM, first compound 0.1 µM): 101%
viability, T/C (second compound 0.0316 µM, first compound 0.316 µM): 94.3%
viability, T/C (second compound 0.0316 µM, first compound 1 µM): 81.4%
viability, T/C (second compound 0.0316 µM, first compound 3.16 µM): 73.2%
viability, T/C (second compound 0.0316 µM, first compound 10 µM): 0.89%
viability, T/C (second compound 0.1 µM, first compound 0.0316 µM): 77.5%
viability, T/C (second compound 0.1 µM, first compound 0.1 µM): 78.9%
viability, T/C (second compound 0.1 µM, first compound 0.316 µM): 80.3%
viability, T/C (second compound 0.1 µM, first compound 1 µM): 69.2%
viability, T/C (second compound 0.1 µM, first compound 3.16 µM): 69.4%
viability, T/C (second compound 0.1 µM, first compound 10 µM): 0.6%
viability, T/C (second compound 0.316 µM, first compound 0.0316 µM): 6.28%
viability, T/C (second compound 0.316 µM, first compound 0.1 µM): 4.96%
viability, T/C (second compound 0.316 µM, first compound 0.316 µM): 4.64%
viability, T/C (second compound 0.316 µM, first compound 1 µM): 3.64%
viability, T/C (second compound 0.316 µM, first compound 3.16 µM): 2.12%
viability, T/C (second compound 0.316 µM, first compound 10 µM): 0.13%
viability, T/C (second compound 1 µM, first compound 0.0316 µM): 0.53%
viability, T/C (second compound 1 µM, first compound 0.1 µM): 0.32%
viability, T/C (second compound 1 µM, first compound 0.316 µM): 0.35%
viability, T/C (second compound 1 µM, first compound 1 µM): 0.18%
viability, T/C (second compound 1 µM, first compound 3.16 µM): 0.21%
viability, T/C (second compound 1 µM, first compound 10 µM): 0.21%
viability, T/C (second compound 3.16 µM, first compound 0.0316 µM): 0.5%
viability, T/C (second compound 3.16 µM, first compound 0.1 µM): 0.4%
viability, T/C (second compound 3.16 µM, first compound 0.316 µM): 0.39%
viability, T/C (second compound 3.16 µM, first compound 1 µM): 0.21%
viability, T/C (second compound 3.16 µM, first compound 3.16 µM): 0.2%
viability, T/C (second compound 3.16 µM, first compound 10 µM): 1.32%
viability, T/C (second compound 10 µM, first compound 0.0316 µM): 0.22%
viability, T/C (second compound 10 µM, first compound 0.1 µM): 0.23%
viability, T/C (second compound 10 µM, first compound 0.316 µM): 0.27%
viability, T/C (second compound 10 µM, first compound 1 µM): 0.22%
viability, T/C (second compound 10 µM, first compound 3.16 µM): 0.24%
viability, T/C (second compound 10 µM, first compound 10 µM): 1.53%
